Assay results as given in patent US20240174618A1, “SUBSTITUTED (2-HETEROARYLOXYPHENYL)SULFONATES, SALTS THEREOF AND THEIR USE AS HERBICIDAL AGENTS” (Bayer Aktiengesellschaft, priority 2021, published 2024).

How the values were obtained:
Type in all cases: in vivo
[1] = system: Glycine max (GLXMA); assay: D. Pre-emergence effect on useful plants, GLXMA; details: useful plant, application rate 80 g/ha
Procedure, shortened: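 Seeds sown in pots and covered with soil; WP or EC formulations sprayed on the soil surface as aqueous suspension/emulsion with 0.5% additive at 600 l/ha water. Plants grown in greenhouse; crop damage scored visually after about 3 weeks as % versus untreated controls (100% = dead, 0% = like control).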

[2] = system: Lolium rigidum (LOLRI); assay: B. Herbicidal post-emergence efficacy, LOLRI
Experimental: (§1) Seeds of mono- and dicotyledonous weed plants were placed in plastic pots in sandy loam soil (doubly sown with in each case one species of mono- or dicotyledonous weed plants per pot), covered with soil and cultivated in a greenhouse under controlled growth conditions. 2 to 3 weeks after sowing, the test plants were treated at the one-leaf stage. The compounds of the invention, formulated in the form of wettable powders (WP) or as emulsion concentrates (EC), were applied onto the green parts of the plants as aqueous suspension or emulsion with addition of 0.5% additive at a water application rate of 600 liters per hectare (converted). After the test plants had been kept in the greenhouse under optimum growth conditions for about 3 weeks, the activity of the preparations was rated visually in comparison to untreated controls.
(§2) For example, • 100% efficacy=plants have died, • 0% efficacy=like untreated control plants
(§3) Tables B1a to B12c below show the effects of selected inventive compounds of the general formula (I) according to table 1 on various harmful plants at an application rate corresponding to 1280 g/ha or less, which were obtained by the experimental procedure mentioned above.

[3] = system: Alopecurus myosuroides (ALOMY); assay: E. Herbicidal post-emergence efficacy, ALOMY
Experimental: (§4) Seeds of monocotyledonous and dicotyledonous weeds and crop plants were placed in sandy loam in plastic or organic planting pots, covered with soil and cultivated in a greenhouse under controlled growth conditions. 2 to 3 weeks after sowing, the test plants were treated at the one-leaf stage. The compounds of the invention, formulated in the form of wettable powders (WP) or as emulsion concentrates (EC), were then sprayed onto the green parts of the plants as aqueous suspension or emulsion with addition of 0.5% additive at a water application rate of 600 l/ha (converted). After the test plants had been kept in the greenhouse under optimum growth conditions for about 3 weeks, the activity of the preparations was rated visually in comparison to untreated controls.
(§5) For example, • 100% efficacy=plants have died, • 0% action=like untreated control plants.
(§6) Tables E1a to E12b below show the effects of selected compounds of the general formula (I) according to table 1 on various harmful plants at an application rate corresponding to 320 g/ha or less, which were obtained by the experimental procedure mentioned above.

[4] = system: Pharbitis purpurea (PHBPU); assay: C. Herbicidal pre-emergence efficacy, PHBPU; details: scored after about 3 weeks
From the text: Seeds of monocotyledonous and dicotyledonous weed plants and crop plants were placed in plastic or organic planting pots and covered with soil. The compounds of the invention, formulated in the form of wettable powders (WP) or as emulsion concentrates (EC), were then applied to the surface of the covering soil as aqueous suspension or emulsion with addition of 0.5% additive at a water application rate equivalent to 600 l/ha (converted). After the treatment, the pots were placed in a greenhouse and kept under good growth conditions for the test plants. After about 3 weeks, the efficacy of the preparations was scored visually in comparison with untreated controls as percentages. For example, • 100% efficacy=plants have died, • 0% efficacy=like untreated control plants.
Tables C1a to C14b below show the effects of selected compounds of the general formula (I) according to table 1 on various harmful plants at an application rate corresponding to 320 g/ha or less, which were obtained by the experimental procedure mentioned above.

[5] = system: Lolium rigidum (LOLRI); assay: E. Herbicidal post-emergence efficacy, LOLRI
Experimental: as §4, §5, §6

[6] = system: Matricaria inodora (MATIN); assay: B. Herbicidal post-emergence efficacy, MATIN
Experimental: as §1, §2, §3

SMILES | Post-emergence efficacy against LOLRI ([2]; 1280 g/ha) | Post-emergence efficacy against ALOMY in % ([3]; application rate 320 g/ha) | Pre-emergence efficacy against PHBPU ([4]; 320 g/ha) | Pre-emergence efficacy against PHBPU ([4]; 80 g/ha) | Post-emergence efficacy against LOLRI in % ([5]; application rate 320 g/ha) | also measured
C=CCS(=O)(=O)Oc1ccccc1Oc1ncc(Cl)cn1 [Example I-36] | – | – | – | – | – | Pre-emergence efficacy against GLXMA in % [1]: 0%
O=S(=O)(CCC(F)(F)F)Oc1c(Cl)cccc1Oc1ncc(Cl)cn1 [Example I-38] | 90% | 80% | – | – | – | –
O=S(=O)(CCCC(F)(F)F)Oc1c(Cl)cccc1Oc1ncc(Cl)cn1 [Example I-39] | – | – | 90% | – | – | –
O=S(=O)(CCC(F)(F)F)Oc1c(F)cccc1Oc1ncc(Br)cn1 [Example I-40] | – | 90% | 100% | – | – | –
O=S(=O)(CCCC(F)(F)F)Oc1c(F)cccc1Oc1ncc(Br)cn1 [Example I-41] | 90% | 100% | 100% | 80% | – | –
O=S(=O)(CCCC(F)(F)F)Oc1c(F)cccc1Oc1ncc(F)cn1 [Example I-42] | – | 100% | 100% | 100% | 100% | Post-emergence efficacy against LOLRI in % ([5]; application rate 80 g/ha): 80%; Post-emergence efficacy against ALOMY in % ([3]; application rate 80 g/ha): 90%
O=S(=O)(CCC(F)(F)F)Oc1c(F)cccc1Oc1ncc(F)cn1 [Example I-47] | – | 100% | 100% | 90% | 100% | –
O=S(=O)(CCC(F)(F)F)Oc1c(F)cccc1Oc1ncc(Cl)cn1 [Example I-48] | 90% | 100% | 100% | 100% | 90% | Post-emergence efficacy against LOLRI ([2]; 320 g/ha): 90%
O=S(=O)(CCCC(F)(F)F)Oc1c(F)cccc1Oc1ncc(Cl)cn1 [Example I-49] | 90% | 80% | 100% | 90% | 80% | –
C=CCCS(=O)(=O)Oc1c(F)cccc1Oc1ncc(Cl)cn1 [Example I-50] | – | – | – | – | – | Post-emergence efficacy against MATIN ([6]; 1280 g/ha): 90%
COCCS(=O)(=O)Oc1c(F)cccc1Oc1ncc(Cl)cn1 [Example I-52] | 90% | – | – | – | – | –
O=S(=O)(CC1CC(F)(F)C1)Oc1c(F)cccc1Oc1ncc(Cl)cn1 [Example I-53] | 90% | 100% | 100% | 100% | 100% | Post-emergence efficacy against LOLRI in % ([5]; application rate 80 g/ha): 80%; Post-emergence efficacy against ALOMY in % ([3]; application rate 80 g/ha): 90%
O=S(=O)(CCC1CC1)Oc1c(F)cccc1Oc1ncc(Cl)cn1 [Example I-55] | – | – | – | – | 80% | Pre-emergence efficacy against GLXMA in % [1]: 10%
O=S(=O)(CCCC(F)F)Oc1c(F)cccc1Oc1ncc(Cl)cn1 [Example I-56] | – | 80% | 100% | 100% | – | Post-emergence efficacy against MATIN ([6]; 320 g/ha): 90%; Post-emergence efficacy against MATIN ([6]; 1280 g/ha): 90%
O=S(=O)(CCCC(F)(F)C(F)(F)F)Oc1c(F)cccc1Oc1ncc(Cl)cn1 [Example I-68] | – | – | – | – | – | Pre-emergence efficacy against GLXMA in % [1]: 10%
O=S(=O)(CCC(F)=C(F)F)Oc1c(Cl)cccc1Oc1ncc(Cl)cn1 [Example I-73] | 90% | – | – | – | – | –
Cc1cccc(Oc2ncc(Cl)cn2)c1OS(=O)(=O)CC1CC(F)(F)C1 [Example I-74] | 100% | – | – | – | – | –
N#Cc1cccc(Oc2ncc(Cl)cn2)c1OS(=O)(=O)CCCC(F)(F)F [Example I-81] | – | 90% | 100% | – | 80% | Pre-emergence efficacy against GLXMA in % [1]: 0%
